Holding throughout (experiment): relative viability (nuclei count vs DMSO), 5 days (fraction); higher = more cells survive
Compound in test [1]: C1COCCN1C2=NC(=NC3=C2OC4=C3C=CC=N4)C5=CC(=CC=C5)NC(=O)C6=CN=C(C=C6)N + NC(=O)Nc1cc(-c2cccc(F)c2)sc1C(=O)N[C@H]1CCCNC1 [AZD7762] (partner 0.2 µM)
An outline of the steps: (§1)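 Cells from lung cancer lines were seeded into 1536-well plates and, one day later, dosed by pin tool. Treatments were either a single drug or a fixed dose of an anchor drug with five library-drug doses (not always all listed) in √10 steps. After 5 days, nuclei were stained in a one-step fixation (final 0.05% Triton X-100, 1% formaldehyde, 1 ug/ml Hoechst) and counted on 4× images, and relative viability is the treated-to-vehicle nuclei ratio, as the median of duplicate plates.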

Compound in test [2]: C1COCCN1C2=NC(=NC3=C2OC4=C3C=CC=N4)C5=CC(=CC=C5)NC(=O)C6=CN=C(C=C6)N + Nc1ncn([C@H]2C[C@H](O)[C@@H](CO)O2)c(=O)n1 [Decitabine] (partner 2 µM)
In short, it runs like this:
as §1

Compound in the test “Entinostat + Trametinib”: Nc1ccccc1NC(=O)c1ccc(CNC(=O)OCc2cccnc2)cc1 [Entinostat] + CC(=O)Nc1cccc(-n2c(=O)n(C3CC3)c(=O)c3c(Nc4ccc(I)cc4F)n(C)c(=O)c(C)c32)c1 [Trametinib] (partner 0.02 µM)
An outline of the steps: as §1

Compound in test [3]: C1COCCN1C2=NC(=NC3=C2OC4=C3C=CC=N4)C5=CC(=CC=C5)NC(=O)C6=CN=C(C=C6)N + Nc1nc2[nH]cc(CCc3ccc(C(=O)N[C@@H](CCC(=O)O)C(=O)O)cc3)c2c(=O)[nH]1 [Pemetrexed] (partner 0.2 µM)
An outline of the steps: as §1

Regarding NCI-H3122, the relative viability in test [1] (first compound 0.02 µM) turned out to be 0.973; in test [1] (first compound 0.06325 µM) it was 1.01; in test [1] (first compound 0.2 µM), 0.99; in test [1] (first compound 0.6325 µM) it was 0.973; in test [1] (first compound 2 µM), 0.667; in test [2] (first compound 0.02 µM), 0.391. Further, the relative viability in test [2] (first compound 0.06325 µM) turned out to be 0.354; in test [2] (first compound 0.2 µM), 0.366; in test [2] (first compound 0.6325 µM) it was 0.487; in test [2] (first compound 2 µM) it was 0.322; with Entinostat + Trametinib (first compound 0.02 µM) it was 0.265; with Entinostat + Trametinib (first compound 0.06325 µM), 0.259. Further, the relative viability with Entinostat + Trametinib (first compound 0.2 µM) is 0.27; with Entinostat + Trametinib (first compound 0.6325 µM), 0.208; in the test with Entinostat + Trametinib (first compound 2 µM), 0.212; in test [3] (first compound 0.02 µM), 0.207; in test [3] (first compound 0.06325 µM), 0.199; in test [3] (first compound 0.2 µM), 0.183. Besides, the figures for the relative viability in test [3] (first compound 0.6325 µM) and in test [3] (first compound 2 µM) were 0.186 and 0.183, respectively.
In the case of PC-3 [JPC-3], the relative viability in test [1] (first compound 0.02 µM) is 0.904; in test [1] (first compound 0.06325 µM) it was 0.752; in test [1] (first compound 0.6325 µM) it was 0.784; in test [1] (first compound 2 µM), 0.625; in test [2] (first compound 0.02 µM), 0.846; in test [2] (first compound 0.06325 µM), 0.8. Further, the relative viability in test [2] (first compound 0.6325 µM) stood at 0.843; in test [2] (first compound 2 µM), 0.755; with Entinostat + Trametinib (first compound 0.02 µM) it was 0.726; with Entinostat + Trametinib (first compound 0.06325 µM), 0.642; in the test with Entinostat + Trametinib (first compound 0.2 µM), 0.579; with Entinostat + Trametinib (first compound 0.6325 µM), 0.51. For the same cell line, the relative viability with Entinostat + Trametinib (first compound 2 µM) came out at 0.502; in test [3] (first compound 0.02 µM), 1.21; in test [3] (first compound 0.06325 µM) it was 1.09; in test [3] (first compound 0.6325 µM), 1.08; in test [3] (first compound 2 µM), 1.17.
Regarding PC-14, the relative viability in test [1] (first compound 0.02 µM) was 0.349; in test [1] (first compound 0.06325 µM) it was 0.352; in test [1] (first compound 0.2 µM) it was 0.242; in test [1] (first compound 0.6325 µM), 0.332; in test [1] (first compound 2 µM), 0.23; in test [2] (first compound 0.02 µM), 0.182. Further, the relative viability in test [2] (first compound 0.06325 µM) came to 0.26; in test [2] (first compound 0.2 µM), 0.226; in test [2] (first compound 0.6325 µM) it was 0.295; in test [2] (first compound 2 µM), 0.173; with Entinostat + Trametinib (first compound 0.02 µM) it was 0.653; in the test with Entinostat + Trametinib (first compound 0.06325 µM), 0.61. Besides, the relative viability amounted to 0.502 in the test with Entinostat + Trametinib (first compound 0.2 µM); 0.145 with Entinostat + Trametinib (first compound 0.6325 µM); 0.0754 with Entinostat + Trametinib (first compound 2 µM); 0.14 in test [3] (first compound 0.02 µM); 0.135 in test [3] (first compound 0.06325 µM); 0.129 in test [3] (first compound 0.2 µM). The relative viability was 0.0787 in test [3] (first compound 0.6325 µM) and 0.0733 in test [3] (first compound 2 µM).
Turning to RERF-LC-KJ, the relative viability in test [1] (first compound 0.02 µM) is 0.882; in test [1] (first compound 0.06325 µM), 1.18; in test [1] (first compound 0.2 µM), 0.997; in test [1] (first compound 0.6325 µM), 0.945; in test [1] (first compound 2 µM), 0.794; in test [2] (first compound 0.02 µM) it was 0.71. Further, the relative viability came out at 0.826 in test [2] (first compound 0.06325 µM); 0.617 in test [2] (first compound 0.2 µM); 0.758 in test [2] (first compound 0.6325 µM); 0.585 in test [2] (first compound 2 µM); 0.915 with Entinostat + Trametinib (first compound 0.02 µM); 0.833 with Entinostat + Trametinib (first compound 0.06325 µM). The relative viability in the test with Entinostat + Trametinib (first compound 0.2 µM) came to 0.726; in the test with Entinostat + Trametinib (first compound 0.6325 µM), 0.418; in the test with Entinostat + Trametinib (first compound 2 µM) it was 0.323; in test [3] (first compound 0.02 µM) it was 0.507; in test [3] (first compound 0.06325 µM), 0.46; in test [3] (first compound 0.2 µM), 0.484. Also, the figures for the relative viability in test [3] (first compound 0.6325 µM) and in test [3] (first compound 2 µM) were 0.457 and 0.376, respectively.
For SW 900, the relative viability is 0.63 in test [1] (first compound 0.02 µM); 0.606 in test [1] (first compound 0.06325 µM); 0.505 in test [1] (first compound 0.2 µM); 0.522 in test [1] (first compound 0.6325 µM); 0.429 in test [1] (first compound 2 µM); 0.402 in test [2] (first compound 0.02 µM). Besides, the relative viability in test [2] (first compound 0.06325 µM) is 0.42; in test [2] (first compound 0.2 µM), 0.448; in test [2] (first compound 0.6325 µM), 0.648; in test [2] (first compound 2 µM), 0.558; with Entinostat + Trametinib (first compound 0.02 µM), 0.793; in the test with Entinostat + Trametinib (first compound 0.06325 µM) it was 0.752. Also, the relative viability was found to be 0.614 with Entinostat + Trametinib (first compound 0.2 µM); 0.766 with Entinostat + Trametinib (first compound 0.6325 µM); 0.347 with Entinostat + Trametinib (first compound 2 µM); 0.497 in test [3] (first compound 0.02 µM); 0.476 in test [3] (first compound 0.06325 µM); 0.455 in test [3] (first compound 0.2 µM). The figures for the relative viability in test [3] (first compound 0.6325 µM) and in test [3] (first compound 2 µM) were 0.469 and 0.254, respectively.

These data come from the supplement of paper PMC10307832.
